The source made the active and inactive calls.
Experiments:
Type in all cases: functional
[1] = molecular target: Induced myeloid leukemia cell differentiation protein Mcl-1 (Homo sapiens, UniProt Q07820)
P388/ADR = test: cells; details: Mus musculus
SN12K1 = test: cells; details: Homo sapiens
P388 = test: cells; details: Mus musculus
Leucine aminopeptidase = molecular target: T1, Leucine aminopeptidase (Plasmodium falciparum 3D7, UniProt Q8IL11); test: P. falciparum M17LAP inhibitors, primary screen, biochemical, fluorogenic H-Leu-NHMec substrate, 1536-well (AID 1619)
T1 sequence (Q8IL11 whole entry): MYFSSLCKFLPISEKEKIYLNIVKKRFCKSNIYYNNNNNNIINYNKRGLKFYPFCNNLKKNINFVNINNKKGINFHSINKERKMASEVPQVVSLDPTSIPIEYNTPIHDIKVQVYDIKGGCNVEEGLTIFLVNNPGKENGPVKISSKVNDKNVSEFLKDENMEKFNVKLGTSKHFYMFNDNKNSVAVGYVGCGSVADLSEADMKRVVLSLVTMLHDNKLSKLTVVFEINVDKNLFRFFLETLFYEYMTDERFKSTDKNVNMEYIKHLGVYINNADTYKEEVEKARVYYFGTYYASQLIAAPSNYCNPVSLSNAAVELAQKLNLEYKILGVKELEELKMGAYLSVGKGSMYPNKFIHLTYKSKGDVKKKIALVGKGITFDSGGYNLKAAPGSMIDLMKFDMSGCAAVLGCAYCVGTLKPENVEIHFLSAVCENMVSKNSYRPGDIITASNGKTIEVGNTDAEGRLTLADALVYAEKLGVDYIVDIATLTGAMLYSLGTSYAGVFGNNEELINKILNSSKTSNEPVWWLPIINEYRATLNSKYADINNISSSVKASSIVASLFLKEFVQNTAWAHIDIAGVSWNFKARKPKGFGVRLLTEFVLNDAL

[2] = growth suppression of PTEN-null colon cells, dose response, cell-based, HCT116 PTEN knockout (AID 1047);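 also: HCT116 colon tumor cells with PTEN knocked out; cells exposed to compound for 60 hours before readout; potency for loss of cell viability measured by luminescence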
[3] = growth suppression of beta-catenin-knockout colon cells, dose response, cell-based, HCT116, human colon tumor (AID 1045);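 also: HCT116 colon tumor cells with beta catenin knocked out; cells exposed to compound for 60 hours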
[4] = molecular target: T2, DNA repair and recombination protein RAD54-like (Homo sapiens, UniProt Q92698); test: inhibitors of human RAD54 branch migration, confirmation, biochemical, fluorescence, cherry-picked samples, dose series (AID 651657)
T2 sequence (Q92698 whole entry): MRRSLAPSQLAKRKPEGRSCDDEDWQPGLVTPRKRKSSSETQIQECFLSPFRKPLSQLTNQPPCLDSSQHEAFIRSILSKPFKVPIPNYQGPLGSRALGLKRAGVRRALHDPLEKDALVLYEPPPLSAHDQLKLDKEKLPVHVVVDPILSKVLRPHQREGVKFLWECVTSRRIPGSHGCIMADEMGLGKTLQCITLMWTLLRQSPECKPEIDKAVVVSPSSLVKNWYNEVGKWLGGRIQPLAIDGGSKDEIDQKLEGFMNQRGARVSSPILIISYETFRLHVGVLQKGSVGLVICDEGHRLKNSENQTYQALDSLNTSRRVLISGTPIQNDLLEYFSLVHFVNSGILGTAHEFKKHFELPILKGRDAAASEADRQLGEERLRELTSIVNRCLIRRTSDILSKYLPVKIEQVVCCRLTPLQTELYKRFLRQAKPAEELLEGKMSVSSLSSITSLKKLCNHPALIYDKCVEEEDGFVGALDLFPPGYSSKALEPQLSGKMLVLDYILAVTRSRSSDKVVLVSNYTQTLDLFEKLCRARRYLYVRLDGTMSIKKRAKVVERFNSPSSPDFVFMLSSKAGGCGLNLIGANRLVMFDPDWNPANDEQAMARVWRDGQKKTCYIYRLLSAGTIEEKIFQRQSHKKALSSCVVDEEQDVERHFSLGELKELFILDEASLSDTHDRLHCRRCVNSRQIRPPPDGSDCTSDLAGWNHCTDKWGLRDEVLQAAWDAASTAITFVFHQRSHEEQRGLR

[5] = molecular target: T3, Replicative DNA helicase DnaB (Mycobacterium tuberculosis, UniProt P9WMR3); test: DnaB intein splicing inhibitors, dose response, biochemical, cell-free fluorescence (AID 449749)
T3 sequence (P9WMR3 whole entry): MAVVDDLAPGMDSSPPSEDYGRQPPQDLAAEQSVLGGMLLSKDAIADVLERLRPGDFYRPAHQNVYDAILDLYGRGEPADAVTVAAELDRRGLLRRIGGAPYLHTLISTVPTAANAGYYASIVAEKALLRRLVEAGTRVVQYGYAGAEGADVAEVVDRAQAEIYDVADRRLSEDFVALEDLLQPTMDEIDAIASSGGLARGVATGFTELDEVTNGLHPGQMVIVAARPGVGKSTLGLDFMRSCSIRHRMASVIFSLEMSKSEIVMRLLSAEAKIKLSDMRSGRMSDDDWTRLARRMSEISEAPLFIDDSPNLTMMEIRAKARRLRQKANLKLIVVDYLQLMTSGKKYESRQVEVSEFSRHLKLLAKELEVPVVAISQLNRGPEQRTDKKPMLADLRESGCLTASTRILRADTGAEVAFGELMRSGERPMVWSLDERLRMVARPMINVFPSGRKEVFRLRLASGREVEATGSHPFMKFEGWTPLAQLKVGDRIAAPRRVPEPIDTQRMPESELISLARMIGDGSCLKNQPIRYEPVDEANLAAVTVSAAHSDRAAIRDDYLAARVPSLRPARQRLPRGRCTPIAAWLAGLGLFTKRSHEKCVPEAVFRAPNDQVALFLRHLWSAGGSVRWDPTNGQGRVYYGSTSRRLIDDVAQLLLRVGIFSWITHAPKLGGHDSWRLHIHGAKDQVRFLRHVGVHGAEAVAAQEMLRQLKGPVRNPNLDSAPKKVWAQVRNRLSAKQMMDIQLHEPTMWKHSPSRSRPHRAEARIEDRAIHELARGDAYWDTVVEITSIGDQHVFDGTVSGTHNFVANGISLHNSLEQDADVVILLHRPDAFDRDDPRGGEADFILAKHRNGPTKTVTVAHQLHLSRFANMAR

Protein RecA = molecular target: T4, Protein RecA (Mycobacterium tuberculosis, UniProt P9WHJ3); test: Fluorescence Cell-Free Homogeneous Dose Retest to Identify Inhibitors of RecA-Intein Splicing Activity. [Related pubchem assays (depositor defined):AID2097, AID2223, AID489010, AID492950]
T4 sequence (P9WHJ3 whole entry): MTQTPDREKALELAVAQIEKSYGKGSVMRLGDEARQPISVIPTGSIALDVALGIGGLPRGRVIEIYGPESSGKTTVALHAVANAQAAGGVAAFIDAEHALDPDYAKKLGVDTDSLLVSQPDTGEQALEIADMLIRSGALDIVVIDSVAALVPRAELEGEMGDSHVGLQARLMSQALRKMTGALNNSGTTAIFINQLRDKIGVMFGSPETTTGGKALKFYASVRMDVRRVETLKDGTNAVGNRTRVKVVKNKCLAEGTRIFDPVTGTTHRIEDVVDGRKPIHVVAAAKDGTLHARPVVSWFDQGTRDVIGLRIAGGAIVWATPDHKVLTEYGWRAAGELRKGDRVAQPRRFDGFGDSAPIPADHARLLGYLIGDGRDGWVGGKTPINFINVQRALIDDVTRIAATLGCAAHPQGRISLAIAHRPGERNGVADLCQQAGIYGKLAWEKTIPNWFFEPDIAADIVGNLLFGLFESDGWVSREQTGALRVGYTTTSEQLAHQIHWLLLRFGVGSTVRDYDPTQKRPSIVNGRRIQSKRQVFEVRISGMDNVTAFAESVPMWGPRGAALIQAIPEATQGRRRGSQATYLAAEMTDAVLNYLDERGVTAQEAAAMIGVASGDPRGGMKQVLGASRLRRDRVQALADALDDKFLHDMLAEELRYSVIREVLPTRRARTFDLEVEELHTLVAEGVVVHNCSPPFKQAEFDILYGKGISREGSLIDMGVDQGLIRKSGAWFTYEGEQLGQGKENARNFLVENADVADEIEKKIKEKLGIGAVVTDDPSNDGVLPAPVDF

Genome polyprotein = Genome polyprotein (dengue virus type 2, UniProt P29990); test: Dengue-2 NS5 methyltransferase inhibitors, primary screen, biochemical, confirmation dose response (AID 588689)
[6] = molecular target: T5, Short transient receptor potential channel 4 (Mus musculus, UniProt Q9QUQ5); test: mouse TRPC4 channel inhibitors, dose response, cell-based, HEK293 TRPC4/mu-opioid, Fluo-4 calcium (AID 434942);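 also: potency of inhibitors blocking the TRPC4 calcium response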
T5 sequence (Q9QUQ5 whole entry): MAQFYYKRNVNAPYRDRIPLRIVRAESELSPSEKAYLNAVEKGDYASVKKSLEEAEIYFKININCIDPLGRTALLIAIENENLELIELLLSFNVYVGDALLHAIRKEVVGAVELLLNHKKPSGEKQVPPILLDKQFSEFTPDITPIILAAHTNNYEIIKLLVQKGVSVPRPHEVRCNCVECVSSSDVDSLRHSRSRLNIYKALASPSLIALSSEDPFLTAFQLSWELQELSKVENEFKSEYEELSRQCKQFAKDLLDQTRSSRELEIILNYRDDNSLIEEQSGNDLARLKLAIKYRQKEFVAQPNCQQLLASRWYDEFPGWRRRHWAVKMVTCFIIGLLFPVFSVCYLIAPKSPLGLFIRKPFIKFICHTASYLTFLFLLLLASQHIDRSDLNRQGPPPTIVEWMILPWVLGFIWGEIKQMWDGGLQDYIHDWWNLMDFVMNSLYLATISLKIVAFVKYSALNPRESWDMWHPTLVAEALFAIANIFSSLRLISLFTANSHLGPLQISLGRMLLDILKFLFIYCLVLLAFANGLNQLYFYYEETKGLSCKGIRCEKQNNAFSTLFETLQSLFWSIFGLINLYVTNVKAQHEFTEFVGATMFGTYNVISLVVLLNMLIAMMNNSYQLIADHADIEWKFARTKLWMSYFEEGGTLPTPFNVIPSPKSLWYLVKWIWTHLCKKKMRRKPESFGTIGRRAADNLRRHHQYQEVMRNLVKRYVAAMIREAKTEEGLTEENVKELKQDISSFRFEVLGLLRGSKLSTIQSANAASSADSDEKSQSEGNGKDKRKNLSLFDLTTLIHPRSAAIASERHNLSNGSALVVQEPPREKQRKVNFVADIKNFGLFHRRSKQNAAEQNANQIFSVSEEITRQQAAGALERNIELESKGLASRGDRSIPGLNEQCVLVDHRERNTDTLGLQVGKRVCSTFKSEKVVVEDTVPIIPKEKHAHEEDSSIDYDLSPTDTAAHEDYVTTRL

Sequence of Genome polyprotein (P29990 2492-3391 limits assumed): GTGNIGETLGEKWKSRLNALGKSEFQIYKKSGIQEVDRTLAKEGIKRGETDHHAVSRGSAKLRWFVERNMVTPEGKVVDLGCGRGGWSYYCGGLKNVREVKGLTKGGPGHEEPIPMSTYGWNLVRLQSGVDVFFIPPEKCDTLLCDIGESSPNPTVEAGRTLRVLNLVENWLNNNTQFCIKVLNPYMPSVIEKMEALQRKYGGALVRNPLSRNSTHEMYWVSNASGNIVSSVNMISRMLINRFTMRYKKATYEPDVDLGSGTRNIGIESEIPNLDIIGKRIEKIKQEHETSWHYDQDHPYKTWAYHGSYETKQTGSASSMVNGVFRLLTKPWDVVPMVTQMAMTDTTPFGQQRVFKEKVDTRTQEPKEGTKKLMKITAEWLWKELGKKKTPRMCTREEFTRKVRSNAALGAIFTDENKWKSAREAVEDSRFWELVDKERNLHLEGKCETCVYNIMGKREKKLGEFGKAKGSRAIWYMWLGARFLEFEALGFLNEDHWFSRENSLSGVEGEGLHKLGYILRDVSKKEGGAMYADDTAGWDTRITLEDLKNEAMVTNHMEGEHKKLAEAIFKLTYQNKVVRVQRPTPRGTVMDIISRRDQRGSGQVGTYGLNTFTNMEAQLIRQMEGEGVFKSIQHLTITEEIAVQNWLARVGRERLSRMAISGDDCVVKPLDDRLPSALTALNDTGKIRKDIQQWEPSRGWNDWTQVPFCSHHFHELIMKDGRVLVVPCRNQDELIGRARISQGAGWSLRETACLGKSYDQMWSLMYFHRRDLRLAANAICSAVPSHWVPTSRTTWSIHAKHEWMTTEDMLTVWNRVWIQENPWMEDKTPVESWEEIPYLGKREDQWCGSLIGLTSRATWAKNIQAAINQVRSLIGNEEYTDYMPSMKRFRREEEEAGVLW
Sequence of Induced myeloid leukemia cell differentiation protein Mcl-1 (Q07820 whole entry): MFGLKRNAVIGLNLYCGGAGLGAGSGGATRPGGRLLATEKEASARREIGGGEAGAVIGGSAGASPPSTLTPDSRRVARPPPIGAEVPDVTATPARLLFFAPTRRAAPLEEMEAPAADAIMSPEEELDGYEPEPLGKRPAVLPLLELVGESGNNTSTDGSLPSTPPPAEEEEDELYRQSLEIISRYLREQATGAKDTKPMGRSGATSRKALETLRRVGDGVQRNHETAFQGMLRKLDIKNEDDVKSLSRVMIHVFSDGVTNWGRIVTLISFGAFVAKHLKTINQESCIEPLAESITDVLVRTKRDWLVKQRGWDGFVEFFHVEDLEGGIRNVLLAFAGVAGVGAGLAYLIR

| Structure (SMILES) | GI50 (P388/ADR) | GI50 (SN12K1) | GI50 (P388) | other results |
| --- | --- | --- | --- | --- |
| Cc1[nH]c2ccccc2c1/C=C/c1nc2ccccc2c(=O)[nH]1 | – | – | – | IC50 [1]: 5.55 µM (active) |
| CN(C)C(=O)OCOC(=O)N(C)C | > 100 µM (inactive) | > 100 µM (inactive) | 66.8 µM (inactive) | – |
| CCOc1ccc(NC(=O)CSCC(=O)O)cc1 | – | – | – | IC50 (Leucine aminopeptidase): 9.94 µM (active) |
| CC1(C)OC2CC(=O)OCC23C1CC(=O)C1(C)C3CCC2(C)C(c3ccoc3)OC(=O)C3OC321 (centres undefined) | > 125 µM (inactive) | 119 µM (inactive) | > 39.5 µM (inactive) | – |
| CC1CCN(S(=O)(=O)c2ccc(NC(=O)CSc3ncccc3C(=O)O)cc2)CC1 | – | – | – | IC50 (Leucine aminopeptidase): 9.68 µM (active) |
| COc1ccc(CNc2nc3nc(-c4ccccc4)cc(O)n3n2)cc1OC | – | – | – | IC50 (Leucine aminopeptidase): 24.2 µM (active) |
| COc1cc(C2c3cc4c(cc3[C@@H](Nc3ccc5c(c3)OCO5)C3COC(=O)[C@H]23)OCO4)cc(OC)c1O (some centres undefined) | 0.0548 µM (active) | < 0.0414 µM (active) | < 0.01 µM (active) | – |
| CCc1ccc(NC(=O)C2CCCCC2C(=O)O)cc1 (centres undefined) | – | – | – | IC50 (Leucine aminopeptidase): 12.1 µM (active) |
| O=C(NC1CN2CCC1CC2)c1cc(Cl)c([N+](=O)[O-])c2nc[nH]c12 (centres undefined) | – | – | – | EC50 [2]: 16.3 µM (active); EC50 [3]: 12.1 µM (active); AC50 [4]: 41.6 µM (active) |
| COc1cccc2c1C(=O)c1c(O)c3c(c(O)c1C2=O)C[C@@](O)(C(C)=O)C[C@@H]3OC1CC(N(C)C)C(O)C(C)O1 (some centres undefined) | 0.01 µM (active) | 0.01 µM (active) | 0.01 µM (active) | – |
| CC1=NN(c2ccccc2)C(=O)/C1=C\c1ccc(Oc2ccc([N+](=O)[O-])cc2[N+](=O)[O-])cc1 | – | – | – | AC50 [5]: 3.66 µM (active); EC50 (Protein RecA): 5.33 µM (active); IC50 (Genome polyprotein): 19.3 µM (active) |
| Nc1ccc2c(c1)CN1C(=O)c3ccccc3C1=N2 [DANIQUIDONE] | 24.8 µM (inactive) | 23.6 µM (inactive) | 4.36 µM (inactive) | – |
| COc1cc([C@@H]2c3cc4c(c(O)c3C[C@H]3COC(=O)[C@@H]32)OCO4)cc(OC)c1OC [BETA-PELTATIN A] | 0.015 µM (active) | – | 0.015 µM (active) | – |
| CC(/C=C1\SC(=S)N(C(C(=O)O)C(C)C)C1=O)=C\c1ccccc1 (centres undefined) | – | – | – | EC50 [6]: 5.96 µM (active); IC50 (Genome polyprotein): 34.3 µM (active) |
| Cc1sccc1/C=N/NC(=O)c1cccc2ccccc12 | – | – | – | IC50 [1]: 21.1 µM (not active) |
| c1ccc2c(c1)SP1Sc3ccccc3P21 (centres undefined) | 28.2 µM (inactive) | 56.5 µM (inactive) | 54.2 µM (inactive) | – |
